Data: US20170029355A1, “LABILE ESTERS OF AGROCHEMICALS FOR CONTROLLED RELEASE AND REDUCTION OF OFF-SITE MOVEMENT” (Monsanto Technology LLC, priority 2011, published 2017)
Blank lines part the entries; values can stand above or below the molecule they belong to.

Tests used:
soybeans = test: Humidome volatility injury, ester 32a emulsifiable concentrate (Example 32); conditions: in vivo
Excerpt: […] The mixtures were sprayed at a 10 gallon per acre (93.5 liters per hectare) rate on soil in a plastic container (“humidome”) with a transparent lid. One soil container was sprayed with water as a control. Four glyphosate-tolerant, dicamba-sensitive soy plants between V2 and V3 stage were immediately placed on the sprayed soil and the domes attached to the trays with binder clips. The soy plants were in pots placed directly on the soil but with aluminum foil wrapped around the bottom to prevent uptake of dicamba or dicamba esters through the roots.
The closed containers were held for 24 hours in a growth chamber which was maintained at 35° C. with 40% relative humidity. […] At this time plant injury and growth stage were assessed compared to the control treated with water only.

[1] = Field dicamba volatility, airborne dicamba collected by air samplers (Example 34); format: physicochemical; conditions: field plot, 0.5 lb/acre dicamba a.e. with ROUNDUP WEATHERMAX, airborne dicamba collected over 24 hours, maximum 86° F.
morning glory [2] = test: Field testing of emulsifiable concentrates, post-emergent control (Example 38); format: in vivo; conditions: 11 or 21 days after treatment
Excerpt: (§1) Four dicamba esters, 1a, 2, 9, and 13a, were formulated as emulsifiable concentrates for field testing. All formulations contained 5% each of a alkylbenzene sulfonate calcium salt (Huntsman NANSA EVM 62/H or Akzo Nobel WITCONATE P-1220 EH) and castor oil ethoxylate (Huntsman SURFONIC CO-54) as the emulsifiers and Aromatic 200 (Exxon) or monochlorobenzene (MCB) as the solvent.
(§2) The esters were compared to the diglycolamine salt of dicamba (CLARITY™) for post-emergent control of three broadleaf weeds: velvetleaf, morning glory, and hemp sesbania. Rates of 280 and 420 g dicamba acid equivalent per hectare were used. […] Evaluations were conducted at 11 or 21 days after treatment. Locations and timing were identical for all formulations tested.

velvetleaf [3] = test: as above; format: in vivo; conditions: 11 or 21 days after treatment
Excerpt: as §1, §2

hemp sesbania [4] = test: as above; format: in vivo; conditions: 11 or 21 days after treatment
Excerpt: as §1, §2

morning glory [5] = test: Field testing of emulsifiable concentrates, post-emergent control (Example 40); format: in vivo; conditions: for % control 19 days after treatment, 280 g/ha, Morning glory: 280 g dicamba acid equivalent per hectare; for % control 19 days after treatment, 560 g/ha, Morning glory: 560 g dicamba acid equivalent per hectare
Procedure: (§3) Three dicamba esters, 30a, 32a, and 36a, were formulated as emulsifiable concentrates for field testing. All surfactants are commercial materials from Stepan.
(§4) The formulations were tested in the field. Locations and timing were identical for the three esters, but differed slightly for the diglycolamine control. The esters were compared to the diglycolamine salt of dicamba (CLARITY™) for post-emergent control of three broadleaf weeds: velvetleaf, morning glory, and hemp sesbania. Rates of 280 and 560 g dicamba acid equivalent per hectare were used.

velvetleaf [6] = test: as above; format: in vivo; conditions: for % control 19 days after treatment, 280 g/ha, Velvetleaf: 280 g dicamba acid equivalent per hectare; for % control 19 days after treatment, 560 g/ha, Velvetleaf: 560 g dicamba acid equivalent per hectare
Procedure: as §3, §4

hemp sesbania [7] = test: as above; format: in vivo; conditions: for % control 19 days after treatment, 280 g/ha, Hemp sesbania: 280 g dicamba acid equivalent per hectare; for % control 19 days after treatment, 560 g/ha, Hemp sesbania: 560 g dicamba acid equivalent per hectare
Procedure: as §3, §4

Euphorbia species = test: Field testing for post-emergent activity in the Southern Hemisphere (Example 39); format: in vivo; conditions: 9 as suspension concentrate, other esters as emulsifiable concentrates
Procedure: The primary weeds were Euphorbia species. Ester 9 was tested as a suspension concentrate using the formulation of Example 33 The other esters were tested as emulsifiable concentrates having the formulations shown in the table below. Akzo Nobel SPONTO EC 334 and SPONTO EC 336 along with SURFONIC CO-54 and […] (Huntsman) were used as emulsifiers and Aromatic 200 (A 200; Exxon) was used as the solvent. […] The diglycolamine salt of dicamba (CLARITYTM) was used as a comparator.

[8] = system: glyphosate-tolerant, dicamba-sensitive soy plants; test: Humidome volatility injury to dicamba-sensitive plants (Example 31); conditions: in vivo
Excerpt: In this case, the diglycolamine salt of dicamba (CLARITY®) was used for comparison.
Dicamba photo-labile ester formulations from Example 28 were mixed with a commercial glyphosate formulation (ROUNDUP POWERMAX®) and diluted to provide a solution with a 0.5% dicamba equivalent concentrate of the ester (or dicamba diglycolamine salt) and 1.5% concentrate of glyphosate. The mixtures were sprayed at a 10 gallon per acre (93.5 liters per hectare) rate on soil in a plastic container (“humidome”) with a transparent lid. One soil container was sprayed with water as a control. Four glyphosate-tolerant, dicamba-sensitive soy plants between V2 and V3 stage were immediately placed on the sprayed soil and the domes attached to the trays with binder clips. The soy plants were in pots placed directly on the soil but with aluminum foil wrapped around the bottom to prevent uptake of dicamba or dicamba esters through the roots.
The closed containers were held for 24 hours in a growth chamber which was maintained at 35° C. with 40% relative humidity. The plants were then removed and grown in a greenhouse for three weeks. At this time plant injury and growth stage were assessed compared to the control treated with water only.

velvetleaf [9] = test: Greenhouse post-emergent control of velvetleaf by emulsifiable concentrates (Example 30); format: in vivo
Procedure: (§5) The efficacy of some photo-labile ester formulations from Example 28 for post-emergent control of velvetleaf was tested in the greenhouse. All formulations were tested at rates of 140, 280, 420, and 560 g dicamba equivalent per hectare rates and compared to the diglycolamine salt of dicamba (CLARITY®) at the same rates and untreated control plants. The velvetleaf plants were 10-15 cm in height at the time of spraying. Percent control was evaluated three weeks after treatment.
The methodology of Example 29 was used to evaluate the efficacy of several photo-labile esters of dicamba for post-emergent control of velvetleaf as emulsifiable concentrate formulations described in Example 28.

velvetleaf [10] = test: Greenhouse post-emergent control of velvetleaf by emulsifiable concentrates (Example 29); format: in vivo; conditions: three weeks after treatment
Procedure: as §5

velvetleaf [11] = test: Greenhouse post-emergent control of velvetleaf by emulsifiable concentrates (Example 37); format: in vivo; conditions: greenhouse, Example 37
How it was run: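 Photo-labile dicamba ester emulsifiable concentrates sprayed post-emergence in the greenhouse on velvetleaf 10-15 cm tall at 140, 280, 420 and 560 g dicamba equivalent per hectare. Percent control scored three weeks after treatment.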

[12] = In vitro photo-release and hydrolytic release of dicamba in an aqueous medium (Example 35); format: physicochemical; conditions: 0.01 mM ester, 35° C.
Procedure: This Example describes the determination of photo-lability and hydrolytic lability of dicamba esters in an aqueous medium. 1 mM solutions of the esters were prepared in acetonitrile (or […] solutions of dicamba diesters). The solutions were then diluted with deionized water to a concentration of 0.01 mM (or 0.005 mM for diesters). The solutions were then transferred to quartz tubes and amber bottles and held in a growth chamber by the procedure of Example 26. A 14-hour day was generally used at a constant temperature of 35° C. Hydrolytic activity was assessed by measuring the increase in dicamba concentration after day zero in the amber (dark) bottles. […] Photolysis manifested itself as increased conversion in the quartz tubes compared to the dark control.

broadleaf weeds = test: Control of broadleaf weeds by ester concentrates (statements of the description); format: in vivo; conditions: emulsifiable and suspension concentrates; Sesbania macrocarpa, morning glory, velvetleaf, Palmer amaranth, fat hen, sicklepod
[13] = system: three broadleaf weeds: velvetleaf, morning glory, and hemp sesbania; test: Field testing of Example 40, overall post-emergent activity in words; format: in vivo; conditions: 280 and 560 g dicamba acid equivalent per hectare
Procedure: as §3, §4

[14] = 280 g dicamba acid equivalent per hectare
[15] = 420 g dicamba acid equivalent per hectare

average dicamba level from the five air samplers [1]: 11.1 ng/m^3
Compound: COc1c(Cl)ccc(Cl)c1C(=O)O.NCCOCCO [Diglycolamine salt, diglycolamine salt of dicamba, reference compound]
average injury to soybeans (soybeans): 60% | % control, 280 g/ha, Morning glory (morning glory [2]; [14]): 100% | % control, 420 g/ha, Morning glory (morning glory [2]; [15]): 100% | % control, 280 g/ha, Velvetleaf (velvetleaf [3]; [14]): 87% | % control, 420 g/ha, Velvetleaf (velvetleaf [3]; [15]): 91% | % control, 280 g/ha, Hemp sesbania (hemp sesbania [4]; [14]): 81% | % control, 420 g/ha, Hemp sesbania (hemp sesbania [4]; [15]): 88% | % control 19 days after treatment, 280 g/ha, Morning glory (morning glory [5]): 89 ± 11% | % control 19 days after treatment, 560 g/ha, Morning glory (morning glory [5]): 94 ± 12% | % control 19 days after treatment, 280 g/ha, Velvetleaf (velvetleaf [6]): 78 ± 10% | % control 19 days after treatment, 560 g/ha, Velvetleaf (velvetleaf [6]): 91 ± 7% | % control 19 days after treatment, 280 g/ha, Hemp sesbania (hemp sesbania [7]): 89 ± 5% | % control 19 days after treatment, 560 g/ha, Hemp sesbania (hemp sesbania [7]): 96 ± 2% | % control, 0.25 lb/ac (0.28 kg/hectare) (Euphorbia species; 0.25 lb dicamba a.e. per acre): 53% | % control, 0.50 lb/ac (0.56 kg/hectare) (Euphorbia species; 0.50 lb dicamba a.e. per acre): 70% | Growth Stage [8]: 6 | % Control of velvetleaf, 140 g/ha (velvetleaf [9]; 140 g/ha): 54% | % Control of velvetleaf, 280 g/ha (velvetleaf [9]; 280 g/ha): 86% | % Control of velvetleaf, 420 g/ha (velvetleaf [9]; 420 g/ha): 96% | % Control of velvetleaf, 560 g/ha (velvetleaf [9]; 560 g/ha): 96% | % Control of velvetleaf, 140 g/ha (velvetleaf [10]; 140 g dicamba equivalent per hectare): 44% | % Control of velvetleaf, 280 g/ha (velvetleaf [10]; 280 g dicamba equivalent per hectare): 63% | % Control of velvetleaf, 420 g/ha (velvetleaf [10]; 420 g dicamba equivalent per hectare): 68% | % Control of velvetleaf, 560 g/ha (velvetleaf [10]; 560 g dicamba equivalent per hectare): 83% | % Control of velvetleaf, 140 g/ha (velvetleaf [11]; 140 g/ha): 43.3% | % Control of velvetleaf, 280 g/ha (velvetleaf [11]; 280 g/ha): 65.8% | % Control of velvetleaf, 420 g/ha (velvetleaf [11]; 420 g/ha): 87.5% | % Control of velvetleaf, 560 g/ha (velvetleaf [11]; 560 g/ha): 90.0%

Conversion to Dicamba, Dark, Day 0 ([12]; amber (dark) bottle, Day 0): 6% | Conversion to Dicamba, Dark, Day 3 ([12]; amber (dark) bottle, Day 3): 5% | Conversion to Dicamba, Dark, Day 14 ([12]; amber (dark) bottle, Day 14): 17% | Conversion to Dicamba, Dark, Day 21 ([12]; amber (dark) bottle, Day 21): 17% | Conversion to Dicamba, Dark, Day 28 ([12]; amber (dark) bottle, Day 28): 19% | Conversion to Dicamba, Light, Day 0 ([12]; quartz tube, 14-hour day, Day 0): 6% | Conversion to Dicamba, Light, Day 3 ([12]; quartz tube, 14-hour day, Day 3): 14% | Conversion to Dicamba, Light, Day 14 ([12]; quartz tube, 14-hour day, Day 14): 23% | Conversion to Dicamba, Light, Day 21 ([12]; quartz tube, 14-hour day, Day 21): 29% | Conversion to Dicamba, Light, Day 28 ([12]; quartz tube, 14-hour day, Day 28): 36%
Compound: COc1ccc(OC(=O)c2c(Cl)ccc(Cl)c2OC)cc1 [Ester 30a, 4-methoxyphenyl ester of dicamba]
% control 19 days after treatment, 280 g/ha, Morning glory (morning glory [5]): 79 ± 7% | % control 19 days after treatment, 560 g/ha, Morning glory (morning glory [5]): 78 ± 10% | % control 19 days after treatment, 280 g/ha, Velvetleaf (velvetleaf [6]): 56 ± 25% | % control 19 days after treatment, 560 g/ha, Velvetleaf (velvetleaf [6]): 65 ± 25% | % control 19 days after treatment, 280 g/ha, Hemp sesbania (hemp sesbania [7]): 50 ± 20% | % control 19 days after treatment, 560 g/ha, Hemp sesbania (hemp sesbania [7]): 67 ± 13% | control of a number of broadleaf weeds in field testing, in words (broadleaf weeds): proven effective | post-emergent activity compared with the dicamba salt, in words [13]: less efficacious | pest or weed control at 140 g/ha (velvetleaf [11]; Abutilon theophrasti, post-emergence, 504 h, 140 g/ha, read-out: % Control of velvetleaf, 140 g/ha): 19.2% | pest or weed control at 280 g/ha (velvetleaf [11]; Abutilon theophrasti, post-emergence, 504 h, 280 g/ha, read-out: % Control of velvetleaf, 280 g/ha): 12.5% | pest or weed control at 420 g/ha (velvetleaf [11]; Abutilon theophrasti, post-emergence, 504 h, 420 g/ha, read-out: % Control of velvetleaf, 420 g/ha): 18.3% | pest or weed control at 560 g/ha (velvetleaf [11]; Abutilon theophrasti, post-emergence, 504 h, 560 g/ha, read-out: % Control of velvetleaf, 560 g/ha): 15%
